Measured values published in article PMC4222603, “Dual inhibition of HIV-1 replication by integrase-LEDGF allosteric inhibitors is predominant at the post-integration stage” (Retrovirology, 2013).
Like-named read-outs stand apart in the source and are kept apart here.

Tests used:
[1] = test system: HIV-1 NL4-3; assay: Antiviral assay in MT-4 cells, multiple-round infection, CellTiter-Glo; type: cell-based
Description: MT-4 cells growing exponentially at the density of 10^6/mL were infected with HIV-1 strain NL4-3 at a MOI (multiplicity of infection) of 0.001 for 2 h. The cells were washed with PBS and aliquoted, using 100 μL fresh complete RPMI, into 96-well white plates (Corning) in the presence of different concentrations of compounds.

[2] = test system: VSV-G-pseudotyped NL4-3Δenv-luc; assay: microbe, parasite or virus in culture; type: cell-based, HIV-1; details: for EC50: Human immunodeficiency virus 1, NL43, MT4, read-out: NL4-3 EC50 Single-round
[3] = test system: NL4-3 Protease L10R, M46I, L63P, V82T, I84V; assay: Antiviral assay on PI-resistant virus; type: cell-based, HIV-1; details: ratio EC50 resistant virus / wt virus
[4] = test system: NL4-3 RT M41L, D67N, T69N, K70R, T215F, K219E; assay: Antiviral assay on NRTI-resistant virus; type: cell-based, HIV-1; details: ratio EC50 resistant virus / wt virus
[5] = test system: NL4-3 RT M41L, D67N, K103N, M184V, L210W, T215Y; assay: Antiviral assay on Multi-drug (NRTI + NNRTI) resistant virus; type: cell-based, HIV-1; details: ratio EC50 resistant virus / wt virus; NRTI + NNRTI mutations
[6] = test system: NL4-3 RT K103N, Y181C; assay: Antiviral assay on NNRTI-resistant virus; type: cell-based, HIV-1; details: ratio EC50 resistant virus / wt virus
[7] = test system: NL4-3 Integrase G140S, Q148H; assay: Antiviral assay on INSTI-resistant virus; type: cell-based, HIV-1; details: ratio EC50 resistant virus / wt virus
[8] = molecular target: T1, IN-CCD/LEDGF-IBD interaction (Human immunodeficiency virus type 1 group M subtype B, UniProt P12497, F1332K); assay: HTRF-based CCD-IBD interaction assay; type: binding, HIV-1; details: Table 1
T1 construct: cloning the integrase region (residues 50 to 202, encoding the catalytic core domain); made in house
Description: All HTRF® conjugated monoclonal antibodies were purchased from Cisbio Bioassays.

[9] = molecular target: IN-LEDGF/p75 interaction (Human immunodeficiency virus type 1 group M subtype B, UniProt P12497); assay: biochemical; details: IN-LEDGF IC50, Table 1; HTRF, full length proteins
Description: IN-LEDGF HTRF® assay was performed in 384-well low volume black polystyrene plates (Corning) using IN-LEDGF assay buffer (25 mM Tris–HCl pH 7.4, 150 mM NaCl, 2 mM MgCl2, 0.4 M KF, 0.1% Igepal CA-630, 0.1% bovine serum albumin, 1 mM DTT). […] The HTRF ratio was converted to % inhibition and analyzed by fitting a sigmoidal dose–response equation with Hill slope to determine the IC50 of the compound.

[10] = test system: HxB2 HIV-1; assay: Antiviral assay in MT4 cells infected with HxB2; type: cell-based; details: Human immunodeficiency virus 1, HXB2, MT4; Table 1; read-out: HxB2 EC50 (MT4 assays)
[11] = in vitro; type: cell-based; details: human
Description: Growth inhibition was monitored in a proliferating human T-cell line (MT-4) with different concentrations of compounds. ATP levels were quantified using the CellTiter-Glo® luminescent reagent (Promega) to measure the ability of a compound to inhibit cell growth, an indication of the compound’s cytotoxicity. Cytotoxicity was evaluated at either day 2 or day 5.

[12] = molecular target: T2, IN strand transfer activity (Human immunodeficiency virus type 1 group M subtype B, UniProt P12497); assay: IN strand transfer ELISA assay; type: biochemical, HIV-1; details: for IC50: Table 1, ELISA, read-out: IN ST IC50; for IN ST plateau (%): inhibition plateau, concentrations up to 100 μM
T2 construct: loaded on a Superdex 200 16/600 PG column (for full length IN); made in house
Description: IN strand transfer ELISA assay has been adapted from. […] 16 μL of IN mixture (20 mM HEPES pH 7.5, 10 mM MgCl2, 1 mM DTT, 0.50 μM His6-IN) was added. […] The reaction was stopped by addition of 60 μL stop mixture (20 mM Tris–HCl pH 7.6, 0.4 M NaCl, 10 mM Na2EDTA, 0.1 mg/mL salmon sperm DNA) and the volume transferred to Reacti-Bind high-binding capacity streptavidin-coated white plates (Thermo Scientific Pierce). After 1 h incubation at room temperature under gentle shaking, integrase and unjoined DNA were removed by three washes with 200 μL wash solution 1 (30 mM NaOH, 0.2 M NaCl, 1 mM Na2EDTA). 100 μL of 2000-fold diluted HRP-conjugated anti-DIG Fab (Roche Applied Science) was added and the plate was incubated for 1 h at 37°C. Unbound antibody was removed with wash solution 2 (PBS pH 7.4, 0.05% Tween-20, 0.1% bovine serum albumin), 100 μL of SuperSignal Femto ELISA substrate (Thermo Scientific Pierce) was added and chemiluminescence was immediately read in a PHERAstar Plus with LUM-plus module. The signal, converted to % inhibition, was analyzed by fitting a sigmoidal dose–response curve to determine IC50 and the inhibition plateau.

[13] = test system: HIV-1 LAV virions produced by HeLa-LAV cells; assay: Virions produced by compound-treated HeLa-LAV cells: p24 and infectivity; type: cell-based; details: luciferase assay in TZM cells
[14] = test system: HIV-1 NL4-3 wt; type: cell-based; details: HEK293T transfection, MT4 infection, CellTiter-Glo
[15] = test system: NL4-3 IN T174I mutant virus; type: cell-based, HIV-1; details: HEK293T transfection, MT4 infection, CellTiter-Glo
[16] = Human immunodeficiency virus 1, NL43, MT4, Table 3, mean of two independent experiments, read-out: EC50 NL4-3 WT
[17] = Human immunodeficiency virus 1, NL43, MT4 cells, mean of six independent experiments, read-out: NL4-3 EC50 Multiple-round
[18] = Human immunodeficiency virus 1, NL43, MT4, Table 1, read-out: NL4-3 EC50 (MT4 assays)

| SMILES | EC50 [1, 16] [nM] | EC50 [2] [nM] | EC50 fold change PI [3] | EC50 fold change NRTIs [4] | EC50 fold change Multi-drug [5] | EC50 fold change NNRTIs [6] | EC50 fold change INSTIs [7] | EC50 [1, 17] [nM] | SR/MR ratio [2] | IC50 [8] [µM] | IC50 [9] [µM] | EC50 [1, 18] [nM] | EC50 [10] [nM] | CC50 [11] [µM] | IC50 [12] [nM] | also measured |
| --- | --- | --- | --- | --- | --- | --- | --- | --- | --- | --- | --- | --- | --- | --- | --- | --- |
| Cc1cn([C@H]2C[C@H](N=[N+]=[N-])[C@@H](CO)O2)c(=O)[nH]c1=O [AZT, Zidovudine] | 140 | 2.5 ± 0.3 | 1 | 88 | 10 | 0.1 | 0.4 | – | – | – | – | – | – | – | – | – |
| O=C1Nc2ccc(Cl)cc2[C@@](C#CC2CC2)(C(F)(F)F)O1 [EFV, Efavirenz, reference compound] | – | 1.2 ± 0.4 | – | – | – | – | – | 1.3 ± 0.2 | 0.9 | – | – | – | – | – | – | – |
| COc1cc2c(cc1Cc1cccc(Cl)c1F)c(=O)c(C(=O)O)cn2[C@H](CO)C(C)C [EVG, Elvitegravir] | 3 | 0.42 ± 0.05 | 1 | 0.3 | 0.3 | 1 | 2036 | 0.86 ± 0.4 | 0.5 | – | – | – | – | – | – | – |
| CC(C)(C)NC(=O)[C@@H]1CN(Cc2cccnc2)CCN1C[C@@H](O)C[C@@H](Cc1ccccc1)C(=O)N[C@H]1c2ccccc2C[C@H]1O [IDV, Indinavir] | 32 | – | 9 | 1 | 1 | 1 | 1 | 36 | – | – | – | – | – | – | – | NL4-3 EC50 Single-round [2]: Inactive |
| CC(C)(C)OC(C(=O)O)c1c(-c2ccc3c(c2)CCCO3)ccc2ncccc12 (stereo not drawn) [Mut029, 2-(tert-butoxy)-2-[6-(3,4-dihydro-2H-1-benzopyran-6-yl)quinolin-5-yl]acetic acid] | – | 30000 ± 4000 | – | – | – | – | – | 3800 ± 1600 | 8 | 1.7 | 2.5 | 3800 | 3800 | > 50 | – | – |
| CC(C)(C)OC(C(=O)O)c1c(-c2ccc3c(c2)CCCO3)ccc2ccccc12 (stereo not drawn) [Mut047, 2-(tert-butoxy)-2-[2-(3,4-dihydro-2H-1-benzopyran-6-yl)naphthalene-1-yl]acetic acid] | – | 37000 ± 2000 | – | – | – | – | – | 16000 ± 7000 | 2.3 | 3.8 | 7.9 | 16000 | 19000 | > 50 | 880 | IN ST plateau (%) [12]: 70% |
| Cc1nc2ccccc2c(C2CCCCC2)c1C(OC(C)(C)C)C(=O)O (stereo not drawn) [Mut049, 2-(tert-butoxy)-2-(4-cyclohexyl-2-methylquinolin-3-yl)acetic acid] | – | 41000 ± 2000 | – | – | – | – | – | 2000 ± 100 | 21 | 18 | 3.5 | 2000 | 750 | > 50 | 180 | IN ST plateau (%) [12]: 56% |
| CC(C)(C)OC(C(=O)O)C1=C(c2ccc3c(c2)CCCO3)c2ccccc2OC1 (stereo not drawn) [Mut062, 2-(tert-butoxy)-2-[4-(3,4-dihydro-2H-1-benzopyran-6-yl)-2H-chromen-3-yl]acetic acid] | – | – | – | – | – | – | – | 3300 ± 1500 | >25 | 2.7 | 3.1 | 3300 | 1300 | > 50 | 540 | IN ST plateau (%) [12]: 73%; Inhibition in single-round infection assay [2]: 30% @50 |
| CC(C)(C)OC(C(=O)O)c1ccc(Oc2ccccc2)cc1-c1ccc2c(c1)CCCO2 (stereo not drawn) [Mut063, 2-(tert-butoxy)-2-[2-(3,4-dihydro-2H-1-benzopyran-6-yl)-4-phenoxyphenyl]acetic acid] | – | – | – | – | – | – | – | – | – | > 100 | > 100 | > 50000 | – | > 50 | > 100000 | Infectivity of virions from treated HeLa-LAV cells [13]: no infectivity defect |
| Cc1nc2c(c(-c3ccccc3)c1C(OC(C)(C)C)C(=O)O)CCCC2 (stereo not drawn) [Mut075, 2-(tert-butoxy)-2-(2-methyl-4-phenyl-5,6,7,8-tetrahydro-quinolin-3-yl)acetic acid] | – | – | – | – | – | – | – | 3400 ± 1000 | >25 | 14 | 4 | 3400 | 1000 | > 50 | – | Inhibition in single-round infection assay [2]: 23% @50 |
| Cc1ccnc2c1NC(=O)c1cccnc1N2C1CC1 [NVP, Nevirapine] | 160 | 41 ± 8 | 1 | 3 | 14 | 287 | 1 | 86 ± 12 | – | – | – | – | – | – | – | – |
| Cc1nnc(C(=O)NC(C)(C)c2nc(C(=O)NCc3ccc(F)cc3)c(O)c(=O)n2C)o1 [RAL, Raltegravir, reference compound] | – | 2.5 ± 0.3 | – | – | – | – | – | – | – | – | – | – | – | – | – | EC50 ([1]; Human immunodeficiency virus 1, NL43, MT4, read-out: EC50 NL4-3 WT): 7 nM; EC50 ([1]; Human immunodeficiency virus 1, NL43, MT4, read-out: NL4-3 EC50 Multiple-round): 2.4 ± 0.6 nM; Infectivity of virions from treated HeLa-LAV cells [13]: no infectivity defect; Infectivity of NL4-3 wt virus produced in presence of compound [14]: no effect; Infectivity of NL4-3 IN T174I virus produced in presence of compound [15]: no effect |
